Legend:
sourgrass = assay: Test D sourgrass; assay type: in vivo, Trichachne insularis; details: Preemergence, 0 to 100 scale, 0 no injury, 100 complete control
Text: Seeds, tubers, or plant parts of Alexandergrass (Brachiaria plantaginea), bermuda-grass (Cynodon dactylon), common pursiane (Portulaca oleracea), common ragweed (Ambrosia elatior), common groundsel (Senecio vulgaris), dallisgrass (Paspalum dilatatum), goosegrass (Eleusine indica), guineagrass (Panicum maximum), itchgrass (Rottboellia exaltata), Johnson grass (Sorghum halepense), large crabgrass (Digitaria sanguinalis), pitted morningglory (Ipomoea lacunosa), purple nutsedge (Cyperus rotundus), sandbur (Cenchrus echinatus), sourgrass (Trichachne insularis), Spanishneedles (Bidens bipinnata), surinam grass (Brachiaria decumbens) and tall mallow (Malva sylvestris) were planted into greenhouse pots of flats containing greenhouse planting medium. Plant species were grown in separate pots or individual compartments. Preemergence applications were made within one day of planting the seed or plant part.
Test chemicals were formulated in a non-phytotoxic solvent mixture which included a surfactant and applied preemergence to the surface of the pot containing seeds in a sandy loam soil. Untreated control pots and treated pots were placed in the greenhouse for growth and visually evaluated for injury 14 to 21 days after herbicide application. Plant response ratings, summarized in Table C, are based on a 0 to 100 scale where 0 is no injury and 100 is complete control. […]

lambsquarters = assay: Test E lambsquarters; assay type: in vivo, Chenopodium album; details: Preemergence
annual bluegrass = assay: Test E annual bluegrass; assay type: in vivo, Poa annua; details: Postemergence
Method: (§1) Compounds evaluated in this test were formulated in a non-phytotoxic solvent mixture which included a surfactant and applied to plants that were in the 1- to 4-leaf stage (postemergence application). A mixture of sandy loam soil and greenhouse potting mix in a 60:40 ratio was used for the postemergence test.
(§2) Plantings of these crops and weed species were adjusted to produce plants of appropriate size for the postemergence test. All plant species were grown using normal greenhouse practices. Crop and weed species include annual bluegrass (Poa annua), blackgrass (Alopecurus myosuroides), black nightshade (Solanum nigra), chickweed (Stellaria media), common poppy (Papaver rhoeas), deadnettle (Lamium amplexicaule), downy brome (Bromus tectorum), field violet (Viola arvensis), galium (Galium aparine), green foxtail (Setaria viridis), Italian ryegrass (Lolium multiflorum), jointed goatgrass (Aegilops cylindrica), kochia (Kochia scoparia), lambsquarters (Chenopodium album), littleseed canarygrass (Phalaris minor), rape (Brassica napus), redroot pigweed (Amaranthus retroflexus), Russian thistle (Salsola kali), scentless chamomile (Matricaria inodora), spring barley (Hordeum vulgare), sugar beet (Beta vulgaris), sunflower (Helianthus annuus), ivyleaf speedwell (Veronica hederaefolia), spring wheat (Triticum aestivum), winter wheat (Triticum aestivum), wild buckwheat (Polygonum convolvulus), wild mustard (Sinapis arvensis), wild oat (Avena fatua), windgrass (Apera spica-venti) and winter barley (Hordeum vulgare).
(§3) Treated plants and untreated controls were maintained in a greenhouse for approximately 21 to 28 days, after which all treated plants were compared to untreated controls and visually evaluated. […] A dash response (-) means no test result.

black nightshade = assay: Test E black nightshade; assay type: in vivo, Solanum nigra; details: Preemergence
Italian ryegrass = assay: Test E Italian ryegrass; assay type: in vivo, Lolium multiflorum; details: Postemergence
Method: as §1, §2, §3

littleseed canarygrass [1] = assay: Test E littleseed canarygrass; assay type: in vivo, Phalaris minor; details: Postemergence
Method: as §1, §2, §3

common poppy = assay: Test E common poppy; assay type: in vivo, Papaver rhoeas; details: Postemergence; for Plant response rating, Comnion poppy: Rate 125 g/ha
Summary of the method: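 Postemergence: 60:40 sandy loam/greenhouse potting mix, 1- to 4-leaf stage. Formulation: solvent plus surfactant. Assessment: visual comparison with untreated controls at ~21–28 days.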

sugar beet = assay: Test E sugar beet; assay type: in vivo, Beta vulgaris; details: Postemergence
Method: as §1, §2, §3

littleseed canarygrass [2] = assay: Test E littleseed canarygrass; assay type: in vivo, Phalaris minor; details: Preemergence
corn = assay: Test C postemergence corn; assay type: in vivo, Zea mays; details: 0 to 100 scale, 0 no effect, 100 complete control
Summary of the method: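 Compounds in a non-phytotoxic solvent with surfactant were sprayed postemergence on greenhouse-grown plants in 60:40 sandy loam/potting mix. After about 14 to 21 days, visual ratings against untreated controls on a 0 (no effect) to 100 (complete control) scale.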

Setaria faberii (SETFA) = assay: Test F preemergence, alone and in mixture with rimsulfuron, SETFA; assay type: in vivo; details: 21 days after treatment, 0-100 scale
Method: Abutilon theophrasti (ABUTH), Chenopodium album (CHEAL), Amaranthus rudis (AMATA), Setaria faberii (SETFA), Panicum dichotomiflorum (PANDI), and Digitaria sanguinalis (DIGSA) were grown from seed in pots of an artificial potting mixture in a greenhouse. Compounds of the present invention were applied at 70 and 105 g ai/ha preemergence. Rimsulfuron was applied at 8.8 and 17.5 g ai/ha. Mixtures of the compounds of the present invention and rimsulfuron were also applied.
Following application, the plants were maintained by watering as needed. A fertilizer solution of Peter's 20-20-20 (10 pounds/5 gallons of water) plus Sprint 330, a Iron Chelate micronutrient, (113.5 grams/5 gallons of water) was injected into the water with an Anderson fertilizer injection system to provide approximately 219 ppm of nitrogen with each watering. Artificial lighting was used to supplement natural light to produce a 14 hour photoperiod and: an additional one hour light period was used between 1:00 am to 2:00 am for a night interruption. Greenhouse temperatures were targeted for 27° C. in the day and 21° C. at night. At 21 days after treatment, all plants were evaluated for injury as compared to control plants that were sprayed only with non-phytotoxic solvent.
Colby's equation was used to calculate the expected additive herbicidal effect of the mixtures of Compound 21 and the mixture partners listed above. […]

[3] = Rate 125 g/ha, 0 to 100 scale (0 no effect, 100 complete control)
[4] = Rate 500 g/ha, 0 to 100 scale where 0 is no effect and 100 is complete control
[5] = Rate 250 g/ha, 0 to 100 scale (0 no effect, 100 complete control)
[6] = Rate 500 g/ha, 0 to 100 scale, 0 no effect, 100 complete control
[7] = Rate 250 g/ha, 0 to 100 scale where 0 is no effect and 100 is complete control

Structure (SMILES) | Plant response rating, Lambsquarters (lambsquarters; [3]) | Plant response rating, Lambsquarters (lambsquarters; [4]) | Plant response rating, Annual bluegras (annual bluegrass; Rate 125 g/ha, 0 to 100 scale) | Plant response rating, Annual bluegras (annual bluegrass; [6]) | Plant response rating, Blk nightshade (black nightshade; [3]) | Plant response rating, Blk nightshade (black nightshade; [4]) | Plant response rating, I. Ryegrass (Italian ryegrass; Rate 125 g/ha, 0 to 100 scale) | Plant response rating, I. Ryegrass (Italian ryegrass; [6]) | Plant response rating, LS canarygrass (littleseed canarygrass [1]; Rate 125 g/ha, 0 to 100 scale) | Plant response rating, LS canarygrass (littleseed canarygrass [1]; [6]) | Plant response rating, Comnion poppy (common poppy; 0 to 100 scale) | Plant response rating, Common poppy (common poppy; [6]) | Plant response rating, Sugar beet (sugar beet; Rate 125 g/ha, 0 to 100 scale) | Plant response rating, Sugar beet (sugar beet; [6]) | Plant response rating, LS canarygrass (littleseed canarygrass [2]; [3]) | Plant response rating, LS canarygrass (littleseed canarygrass [2]; [4]) | Plant response rating, Corn (corn; Rate 140 g/ha) | Plant response rating, Corn (corn; Rate 280 g/ha) | Plant response rating, Corn (corn; Rate 560 g/ha) | Plant response rating, Corn (corn; Rate 1120 g/ha) | other results
Cc1cccc(C)c1-n1c(=O)on(C(=O)N(c2ccc(F)cc2)C(C)C)c1=O [Compound 18] | – | – | – | – | – | – | – | – | – | – | – | – | – | – | – | – | – | – | – | – | Plant response rating, Sourgrass (sourgrass; Rate 64 g/ha): 100
CC(C)N(C(=O)n1oc(=O)n(C(C)C)c1=O)c1ccc(Cl)cc1 [Compound 114] | 50 | 100 | 0 | 60 | 20 | 90 | 10 | 20 | 0 | 60 | 0 | 20 | 50 | 50 | 50 | 80 | – | – | – | – | Plant response rating, Lambsquarters (lambsquarters; Rate 250 g/ha, 0 to 100 scale): 100; Plant response rating, Annual bluegras (annual bluegrass; [5]): 30; Plant response rating, Blk nightshade (black nightshade; Rate 250 g/ha, 0 to 100 scale): 60; Plant response rating, I. Ryegrass (Italian ryegrass; [5]): 20; Plant response rating, LS canarygrass (littleseed canarygrass [1]; [5]): 30; Plant response rating, Common poppy (common poppy; [5]): 10; Plant response rating, Sugar beet (sugar beet; [5]): 55; Plant response rating, LS canarygrass (littleseed canarygrass [2]; Rate 250 g/ha, 0 to 100 scale): 60
CCn1c(=O)on(C(=O)N(c2ccccc2)C(C)C)c1=O [Compound 117] | – | – | – | – | – | – | – | – | – | – | – | – | – | – | – | – | 0 | 0 | 40 | 85 | –
CC(C)N(C(=O)n1oc(=O)n(C(C)C)c1=O)c1ccc(F)cc1 [Compound 131] | 100 | 100 | 40 | 70 | 70 | 90 | 0 | 40 | 0 | 50 | 0 | 0 | 0 | 0 | 70 | 100 | 0 | 0 | 5 | 40 | Lambsquarters plant response rating (0 to 100 scale) (lambsquarters; Rate 250 g/ha): 100; Plant response rating, Annual bluegras (annual bluegrass; Rate 62 g/ha, 0 to 100 scale): 55; Annual bluegras plant response rating (annual bluegrass; [7]): 40; Blk nightshade plant response rating (0 to 100 scale) (black nightshade; Rate 250 g/ha): 85; Plant response rating, I. Ryegrass (Italian ryegrass; Rate 62 g/ha, 0 to 100 scale): 50; I. Ryegrass plant response rating (Italian ryegrass; [7]): 30; Plant response rating, LS canarygrass (littleseed canarygrass [1]; Rate 62 g/ha, 0 to 100 scale): 50; LS canarygrass plant response rating (littleseed canarygrass [1]; [7]): 20; SETFA Observed (Setaria faberii (SETFA); Alone: Cmpd. rate 70, Rimsulfuron 0): 35%; SETFA Observed (Setaria faberii (SETFA); Alone: Cmpd. rate 105, Rimsulfuron 0): 65%; Plant response rating, Common poppy (common poppy; Rate 62 g/ha, 0 to 100 scale): 65; Common poppy plant response rating (common poppy; [7]): 0; Plant response rating, Sugar beet (sugar beet; Rate 62 g/ha, 0 to 100 scale): 0; Sugar beet plant response rating (sugar beet; [7]): 0; LS canarygrass plant response rating (0 to 100 scale) (littleseed canarygrass [2]; Rate 250 g/ha): 70; Plant response rating, Sourgrass (sourgrass; Rate 16 g/ha): 90
